Test results taken from patent publication US11649476B2, “Flow cytometry data processing for antimicrobial agent sensibility prediction” (priority 2016, dated 2023).

Assays:
[1] = system: Enterobacteriaceae strains; test: FCM analysis of Ceftazidime-treated strains (DiBAC4(3) marker), fluorescence distribution; format: cell-based; conditions: 128 strains, 1, 2, 4 and 8 mg/L Ceftazidime; inferred from low performance of quantile models
Experimental: In a next step 22, liquid samples with different concentrations {C1, . . . , Cm} of the antibiotic are prepared for each of the selected strains Si, where C1=0 (no antibiotic) and m>2 is the number of non-null concentrations of antibiotic. Said concentrations are stored in the computer unit 14. […] After 2 h growth at 35° C. with shaking at 180 rpm, the resulting exponential phase bacterial culture is normalized at 0.5 McF and used to inoculate wells of a microtiterplate supplemented with antibiotics at the different concentrations {C1, . . . , Cm}. After 1 h of incubation at 35° C., a membrane depolarization fluorescent marker, for example (Bis-(1,3-Dibutylbarbituric Acid)Trimethine Oxonol), also known as “DiBAC4(3)”, is added to the wells at a final concentration of 0.5 μg/ml. An additional 15 min incubation with the marker is at 35° C. is then carried out. […]
In the step 24, a FCM acquisition is performed for each sample by means of the flow-cytometer 12 and the corresponding FSC, SSC and fluorescence distributions stored in the computer unit 14. For each strain Si, and for each concentration C1, a FSC distribution “FSCi,j”, a SSC distribution “SSCi,j” and a fluorescence distribution “FIi,j” are thus stored in the computer unit 14, e.g. in the form of digital vectors. […]

[2] = system: Enterobacteriaceae strains; test: FCM fluorescence distribution profiles of Gentamicin-treated strains (DiBAC4(3) membrane depolarization marker); format: cell-based
Experimental: In a next step 22, liquid samples with different concentrations {C1, . . . , Cm} of the antibiotic are prepared for each of the selected strains Si, where C1=0 (no antibiotic) and m>2 is the number of non-null concentrations of antibiotic. Said concentrations are stored in the computer unit 14. […] After 2 h growth at 35° C. with shaking at 180 rpm, the resulting exponential phase bacterial culture is normalized at 0.5 McF and used to inoculate wells of a microtiterplate supplemented with antibiotics at the different concentrations {C1, . . . , Cm}. After 1 h of incubation at 35° C., a membrane depolarization fluorescent marker, for example (Bis-(1,3-Dibutylbarbituric Acid)Trimethine Oxonol), also known as “DiBAC4(3)”, is added to the wells at a final concentration of 0.5 μg/ml. An additional 15 min incubation with the marker is at 35° C. is then carried out. The concentrations {C1, . . . , Cm} are chosen such that the range [BPS, BPR] is included or equal to the range [C2, Cm] of non-null concentrations.
In the step 24, a FCM acquisition is performed for each sample by means of the flow-cytometer 12 and the corresponding FSC, SSC and fluorescence distributions stored in the computer unit 14. For each strain Si, and for each concentration C1, a FSC distribution “FSCi,j”, a SSC distribution “SSCi,j” and a fluorescence distribution “FIi,j” are thus stored in the computer unit 14, e.g. in the form of digital vectors.
The experiment was performed as described in the following lines: • A panel of 107 Enterobacteriaceae strains (FIG. 6: Distribution of the panel of strains according to their MICs for Gentamicin) were treated with 0, 2, 4 and 8 mg/L of Gentamicin following the protocol described in FIG. 3 and analyzed by FCM.

CC(C)(O/N=C(\C(=O)N[C@@H]1C(=O)N2C(C(=O)[O-])=C(C[n+]3ccccc3)CS[C@H]12)c1csc(N)n1)C(=O)O [Ceftazidime]
fluorescence distribution of treated strains [1]: the majority of strains treated with Ceftazidime exhibit homogeneous distributions of fluorescence

Gentamicin
fluorescence distribution profile vs untreated samples ([2]; intermediate phenotype strains, 2 mg/L Gentamicin): more strains showed no shift of fluorescence (profile A)
fluorescence distribution profile vs untreated samples ([2]; intermediate phenotype strains, 4 and 8 mg/L Gentamicin): equal number of strains exhibited either no shift (profile A) or heterogeneous fluorescence distribution (profile B)
resistant strains that did not show any shift in fluorescence (profile A) ([2]; resistant phenotype strains, all concentrations tested (2, 4, 8 mg/L)): 36 out of 37
fluorescence distribution profile vs untreated samples ([2]; susceptible phenotype strains, 2 mg/L Gentamicin, panel of 107 strains, approximately evaluated): equal number of strains exhibited either no shift (profile A) or heterogeneous fluorescence distributions (profile B)
fluorescence distribution profile vs untreated samples ([2]; susceptible phenotype strains, 4 and 8 mg/L Gentamicin, panel of 107 strains, approximately evaluated): the majority of strains exhibited an heterogeneous fluorescence distribution (profile B)
